One assay addresses DNA-PK (Homo sapiens (Human), UniProt P78527). Description: DNA-PK biochemical assay (Reaction Biology HotSpot kinase assay, 10 μM ATP). As to the method: DNA-PK Biochemical Assay Using Reaction Biology's HotSpot Kinase Assay Protocol:
Reagent: Base Reaction buffer; 20 mM Hepes (pH 7.5), 10 mM MgCl2, 1 mM EGTA, 0.01% Brij35, 0.02 mg/ml BSA, 0.1 mM Na3VO4, 2 mM DTT, 1% DMSO Required cofactors are added individually to each kinase reaction.
Reaction Procedure: 1. Prepare substrate in freshly prepared Reaction Buffer; 2. Deliver any required cofactors to the substrate solution above; 3. Deliver kinase into the substrate solution and gently mix; 4. Deliver compounds in 100% DMSO into the kinase reaction mixture by Acoustic technology (Echo550; nanoliter range), incubate for 20 min at room temperature; 5. Deliver 33P-ATP into the reaction mixture to initiate the reaction; 6. Incubate for 2 hours at room temperature; 7. Detect kinase activity by P81 filter-binding method.

The next assay has as its target ATM (Homo sapiens (Human), UniProt Q13315). Description: ATM biochemical assay (Reaction Biology HTRF kinase assay, 10 μM ATP). As to the method: Ataxia-Telangiectasia Mutated (ATM) Biochemical Assay Using Reaction Biology's HTRF Kinase Assay Protocol:
The assay detects kinase activity by antibody based HTRF assay. The GST-tagged p53 protein serves as substrate and Eu-labeled-antibody with specific phosphorylation site binds upon phosphorylation which is monitored by HTRF from the anti-GST-d2.
Reagent: Reaction buffer; 50 mM Hepes (pH 7.5), 150 mM NaCl, 10 mM MnCl2, 1% Glycerol, 0.01% Brij35, 1 mM DTT, 1% DMSO.
Substrate: Human p53 (aa2-393), RBC produced in E. coli, N-terminal GST-Tag, MW=70.42 kDa.
Detection; MAb Anti-p53-pS15-Eu cryptate, CisBio cat #61P08KAZ; MAb Anti GST-d2
Reaction Procedure: 1. Deliver 2× Enzyme in wells of reaction plate except No E control wells. Add buffer instead; 2. Deliver compounds in 100% DMSO into the kinase reaction mixture by Acoustic technology (Echo550; nanoliter range), incubate for 30 min at room temperature; 3. Deliver 2× substrate+ATP mixture into the reaction mixture to initiate the reaction; 4. Incubate for 2 hours at room temperature.
HTRF Detection: 1. Deliver 2× Stop/Detection mixture and incubate for 2 hours to overnight in the dark. 2. HTRF measurement (Ex/Em1/Em2=320/615/665 nm) in EnVision.

In assay [1] the target is PI3Kδ (His-PIK3CD/PIK3R1, p110 delta/p85 alpha) (Homo sapiens (Human), UniProt O00329). Description: PI3Kδ biochemical assay (HTRF/FRET probe). Type of assay: binding. Conditions: class symbol. As to the method: Phosphoinositide 3-kinase (PI3K) Biochemical Assay: A solution was prepared containing 0.2 nM Anti-HIS-Terbium (Cisbio, 64CUSTAZU), 40 nM designed-probe and 1.0 nM His-PIK3CD/PIK3R1 (p110 delta/p85 alpha) in FRET Buffer (20 mM HEPES, 10 mM MgCl2, 0.015% Brij-35, 4 mM DTT, 0.05 mg/mL BSA).
Sequence of PI3Kδ (His-PIK3CD/PIK3R1, p110 delta/p85 alpha) (O00329 whole entry, species assumed): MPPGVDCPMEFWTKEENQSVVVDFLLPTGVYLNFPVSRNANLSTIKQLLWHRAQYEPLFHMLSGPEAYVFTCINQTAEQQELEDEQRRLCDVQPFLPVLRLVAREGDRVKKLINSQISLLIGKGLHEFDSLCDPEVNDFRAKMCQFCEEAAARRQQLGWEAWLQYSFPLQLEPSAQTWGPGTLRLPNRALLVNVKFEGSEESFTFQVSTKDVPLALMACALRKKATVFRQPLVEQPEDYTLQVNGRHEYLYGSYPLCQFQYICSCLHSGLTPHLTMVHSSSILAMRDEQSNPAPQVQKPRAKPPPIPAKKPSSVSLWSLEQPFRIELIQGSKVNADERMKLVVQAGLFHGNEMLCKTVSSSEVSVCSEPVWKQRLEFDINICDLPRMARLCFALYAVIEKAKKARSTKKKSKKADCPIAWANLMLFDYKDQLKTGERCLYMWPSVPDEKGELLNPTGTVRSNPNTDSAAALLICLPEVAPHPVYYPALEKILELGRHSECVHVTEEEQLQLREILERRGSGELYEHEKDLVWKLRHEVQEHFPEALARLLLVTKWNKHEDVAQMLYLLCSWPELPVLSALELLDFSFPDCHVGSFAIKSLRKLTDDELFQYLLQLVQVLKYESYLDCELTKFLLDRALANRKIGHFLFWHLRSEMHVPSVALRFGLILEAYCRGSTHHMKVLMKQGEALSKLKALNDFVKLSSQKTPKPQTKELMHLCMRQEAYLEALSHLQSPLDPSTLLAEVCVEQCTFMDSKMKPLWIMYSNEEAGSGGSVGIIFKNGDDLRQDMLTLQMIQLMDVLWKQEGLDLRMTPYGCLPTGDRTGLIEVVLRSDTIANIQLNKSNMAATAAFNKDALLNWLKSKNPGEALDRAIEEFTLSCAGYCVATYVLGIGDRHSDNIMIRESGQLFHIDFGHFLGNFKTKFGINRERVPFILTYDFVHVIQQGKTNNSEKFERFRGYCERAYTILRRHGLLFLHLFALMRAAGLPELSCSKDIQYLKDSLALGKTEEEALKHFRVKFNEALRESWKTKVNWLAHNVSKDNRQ
Sequence of PI3Kδ (His-PIK3CD/PIK3R1, p110 delta/p85 alpha) (P27986 whole entry partner, species assumed): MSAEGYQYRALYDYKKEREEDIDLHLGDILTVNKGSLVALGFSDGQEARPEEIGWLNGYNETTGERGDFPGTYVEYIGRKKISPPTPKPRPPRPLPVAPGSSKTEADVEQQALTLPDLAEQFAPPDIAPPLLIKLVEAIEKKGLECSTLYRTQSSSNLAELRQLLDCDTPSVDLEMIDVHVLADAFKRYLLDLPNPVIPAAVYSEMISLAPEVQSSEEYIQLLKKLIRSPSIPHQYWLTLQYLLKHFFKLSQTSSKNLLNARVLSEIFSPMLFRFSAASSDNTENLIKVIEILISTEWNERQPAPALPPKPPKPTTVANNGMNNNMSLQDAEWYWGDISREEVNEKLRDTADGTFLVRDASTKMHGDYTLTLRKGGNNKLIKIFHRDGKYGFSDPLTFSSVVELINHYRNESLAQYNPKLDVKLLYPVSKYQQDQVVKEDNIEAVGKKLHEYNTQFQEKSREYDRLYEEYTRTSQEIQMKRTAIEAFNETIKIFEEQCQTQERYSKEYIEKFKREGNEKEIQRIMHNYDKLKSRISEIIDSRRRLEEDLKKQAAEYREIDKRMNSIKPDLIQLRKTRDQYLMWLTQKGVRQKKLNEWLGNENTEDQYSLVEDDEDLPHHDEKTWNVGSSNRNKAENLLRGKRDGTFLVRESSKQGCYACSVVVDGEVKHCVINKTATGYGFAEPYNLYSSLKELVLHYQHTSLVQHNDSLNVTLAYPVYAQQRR
In general terms: TR-FRET usually uses a lanthanide donor and a delayed reading to cut background.

The target in assay [2] is PI3Kα (His-PIK3CA/PIK3R1, p110 alpha/p85 alpha) (Homo sapiens (Human), UniProt P42336). Kind of assay: PI3Kα biochemical assay (HTRF/FRET probe). Type of assay: binding. Conditions: class symbol. Here is the method: Phosphoinositide 3-kinase α (PI3Kα) Biochemical Assay: A solution was prepared containing 0.2 nM Anti-HIS-Terbium (Cisbio, 64CUSTAZU), 3.7 nM designed-probe and 1.0 nM His-PIK3CA/PIK3R1 (p110 alpha/p85 alpha) in FRET Buffer (20 mM HEPES, 10 mM MgCl2, 0.015% Brij-35, 4 mM DTT, 0.05 mg/mL BSA).

The mark [3] stands for this setting: read-out: DNA-PK HotSpot 10 μM ATP IC50, class symbol.
Setting [4] is: read-out: ATM HTRF 10 μM ATP IC50, class symbol.

Read-outs that look alike come from different tables or passages of the source.

The term IC50 denotes the concentration that inhibits the measured activity by half.

Sequence of ATM (Q13315 whole entry): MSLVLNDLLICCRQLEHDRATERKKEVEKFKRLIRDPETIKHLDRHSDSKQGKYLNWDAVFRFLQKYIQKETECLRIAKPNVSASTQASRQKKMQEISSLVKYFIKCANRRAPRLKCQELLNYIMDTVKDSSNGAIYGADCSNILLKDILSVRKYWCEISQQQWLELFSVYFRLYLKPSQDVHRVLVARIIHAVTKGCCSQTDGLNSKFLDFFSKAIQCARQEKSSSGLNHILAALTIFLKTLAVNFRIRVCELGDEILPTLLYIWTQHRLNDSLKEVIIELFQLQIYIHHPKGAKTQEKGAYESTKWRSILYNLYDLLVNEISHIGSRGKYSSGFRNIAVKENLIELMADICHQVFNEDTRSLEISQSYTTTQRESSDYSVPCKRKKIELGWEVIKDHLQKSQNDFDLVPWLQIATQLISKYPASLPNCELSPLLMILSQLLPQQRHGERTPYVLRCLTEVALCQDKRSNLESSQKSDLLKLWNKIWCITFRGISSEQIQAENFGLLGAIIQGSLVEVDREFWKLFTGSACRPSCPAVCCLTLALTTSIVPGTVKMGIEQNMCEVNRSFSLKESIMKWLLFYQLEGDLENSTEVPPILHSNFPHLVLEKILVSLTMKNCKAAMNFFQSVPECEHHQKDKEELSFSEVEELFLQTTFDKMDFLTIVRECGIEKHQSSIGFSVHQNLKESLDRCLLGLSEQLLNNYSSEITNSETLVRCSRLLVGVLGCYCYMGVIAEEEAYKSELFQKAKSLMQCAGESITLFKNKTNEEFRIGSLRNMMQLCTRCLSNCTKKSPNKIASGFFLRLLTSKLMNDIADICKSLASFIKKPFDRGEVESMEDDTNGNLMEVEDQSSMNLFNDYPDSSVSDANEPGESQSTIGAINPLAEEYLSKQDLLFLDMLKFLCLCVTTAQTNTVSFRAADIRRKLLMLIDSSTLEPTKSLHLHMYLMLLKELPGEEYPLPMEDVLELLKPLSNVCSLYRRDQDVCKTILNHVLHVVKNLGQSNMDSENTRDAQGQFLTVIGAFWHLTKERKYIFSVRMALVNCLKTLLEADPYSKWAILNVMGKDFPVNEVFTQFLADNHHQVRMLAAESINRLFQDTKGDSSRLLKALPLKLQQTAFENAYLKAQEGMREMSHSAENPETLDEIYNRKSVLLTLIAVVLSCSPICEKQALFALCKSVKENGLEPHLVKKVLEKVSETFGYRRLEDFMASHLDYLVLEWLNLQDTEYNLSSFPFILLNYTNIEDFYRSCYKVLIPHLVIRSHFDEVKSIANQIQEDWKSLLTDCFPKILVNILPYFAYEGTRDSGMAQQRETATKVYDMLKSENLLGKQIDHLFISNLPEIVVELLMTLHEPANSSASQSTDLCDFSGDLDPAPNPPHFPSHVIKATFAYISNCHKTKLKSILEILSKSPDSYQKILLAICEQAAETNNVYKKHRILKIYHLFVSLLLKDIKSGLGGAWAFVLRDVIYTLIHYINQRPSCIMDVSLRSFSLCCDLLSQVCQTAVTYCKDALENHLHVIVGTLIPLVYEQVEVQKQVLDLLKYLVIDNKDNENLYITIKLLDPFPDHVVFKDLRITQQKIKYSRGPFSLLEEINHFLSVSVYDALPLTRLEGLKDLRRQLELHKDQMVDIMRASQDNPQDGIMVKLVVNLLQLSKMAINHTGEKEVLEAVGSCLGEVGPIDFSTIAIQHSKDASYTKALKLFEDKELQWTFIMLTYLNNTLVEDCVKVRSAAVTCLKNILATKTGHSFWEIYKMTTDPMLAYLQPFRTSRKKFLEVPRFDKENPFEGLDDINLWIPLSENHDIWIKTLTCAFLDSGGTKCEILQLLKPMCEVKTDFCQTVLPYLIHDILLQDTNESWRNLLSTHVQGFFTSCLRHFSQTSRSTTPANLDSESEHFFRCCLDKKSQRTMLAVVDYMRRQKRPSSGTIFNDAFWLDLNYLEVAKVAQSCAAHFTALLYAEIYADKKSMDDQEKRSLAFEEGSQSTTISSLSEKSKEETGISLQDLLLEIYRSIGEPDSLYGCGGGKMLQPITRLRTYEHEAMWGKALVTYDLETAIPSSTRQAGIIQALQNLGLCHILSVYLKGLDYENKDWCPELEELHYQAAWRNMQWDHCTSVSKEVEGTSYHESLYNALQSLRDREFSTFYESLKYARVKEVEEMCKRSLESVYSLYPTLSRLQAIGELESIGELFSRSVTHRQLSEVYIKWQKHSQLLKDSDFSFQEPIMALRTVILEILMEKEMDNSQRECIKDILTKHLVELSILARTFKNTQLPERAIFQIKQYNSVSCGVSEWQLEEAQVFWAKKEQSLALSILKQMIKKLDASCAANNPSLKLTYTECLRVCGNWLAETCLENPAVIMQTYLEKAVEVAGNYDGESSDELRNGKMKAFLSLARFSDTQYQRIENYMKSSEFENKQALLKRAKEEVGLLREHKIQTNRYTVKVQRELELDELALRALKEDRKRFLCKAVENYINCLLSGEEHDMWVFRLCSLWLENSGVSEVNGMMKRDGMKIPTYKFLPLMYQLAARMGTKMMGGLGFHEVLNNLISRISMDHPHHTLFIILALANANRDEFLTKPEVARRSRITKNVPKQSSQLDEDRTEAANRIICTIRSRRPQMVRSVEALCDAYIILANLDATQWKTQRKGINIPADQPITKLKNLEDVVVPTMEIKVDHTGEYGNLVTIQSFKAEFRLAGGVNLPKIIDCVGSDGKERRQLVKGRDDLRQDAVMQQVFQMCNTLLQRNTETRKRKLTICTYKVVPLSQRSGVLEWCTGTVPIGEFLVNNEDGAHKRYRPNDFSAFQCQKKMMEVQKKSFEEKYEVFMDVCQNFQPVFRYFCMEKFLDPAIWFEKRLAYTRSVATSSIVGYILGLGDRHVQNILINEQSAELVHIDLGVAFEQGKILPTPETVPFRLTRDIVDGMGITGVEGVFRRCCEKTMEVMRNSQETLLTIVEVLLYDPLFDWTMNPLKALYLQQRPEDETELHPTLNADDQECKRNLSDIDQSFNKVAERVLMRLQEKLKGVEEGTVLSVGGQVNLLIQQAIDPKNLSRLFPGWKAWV

In the case of `Cc1cc2nnccc2cc1Nc1ncc2c(n1)N(C13CCC(O)(CC1)C3)CC(=O)N2C` [Compound 61, 8-(4-hydroxybicyclo[2.2.1]heptan-1-yl)-5-methyl-2-((7-methylcinnolin-6-yl)amino)-7,8-dihydropteridin-6(5H)-one], the IC50 is less than 1 nM on DNA-PK (setting [3]), 1 to 10 nM at ATM (class symbol), 100 to 1000 nM in assay [1] and 10 to 100 nM in assay [2].

For the compound `COC12CCC(n3c(=O)n(C)c4cnc(Nc5cc(F)c(-c6cnn(C)c6)cc5C)nc43)(C1)C2` [Compound 39, 2-((5-fluoro-2-methyl-4-(1-methyl-1H-pyrazol-4-yl)phenyl)amino)-9-(4-methoxybicyclo[2.1.1]hexan-1-yl)-7-methyl-7,9-dihydro-8H-purin-8-one], the IC50 is 10 to 100 nM on DNA-PK (class symbol), 10 to 100 nM at ATM (class symbol), not below 1000 nM in assay [1] and 100 to 1000 nM in assay [2].

For `Cc1cc2c(cc1Nc1ncc3c(n1)N(C14CCC(O)(CC1)C4)CC(=O)N3C)OCO2` [Compound 52, 8-{4-Hydroxybicyclo[2.2.1]heptan-1-yl}-5-methyl-2-[(6-methyl-2H-1,3-benzodioxol-5-yl)amino]-5,6,7,8-tetrahydropteridin-6-one], the IC50 against DNA-PK (class symbol) was 10 to 100 nM; on ATM (setting [4]), not below 1000 nM; in assay [1], not below 1000 nM; in assay [2], not below 1000 nM.

Consider `COC12CCC(n3c(=O)n(C)c4cnc(Nc5cc6nsnc6cc5C)nc43)(C1)C2` [Compound 30, 9-(4-methoxybicyclo[2.1.1]hexan-1-yl)-7-methyl-2-((6-methylbenzo[c][1,2,5]thiadiazol-5-yl)amino)-7,9-dihydro-8H-purin-8-one], for which the IC50 at DNA-PK (setting [3]) was less than 1 nM; at ATM (class symbol) it was 100 to 1000 nM; in assay [1], not below 1000 nM; in assay [2], 100 to 1000 nM.

Take `Cc1cc2ncnn2cc1Nc1ncc2c(n1)N(C13CCC(O)(CC1)C3)C(=O)C21CC1` [Compound 66, 7′-(4-hydroxybicyclo[2.2.1]heptan-1-yl)-2′-((7-methyl-[1,2,4]triazolo[1,5-a]pyridin-6-yl)amino)spiro[cyclopropane-1,5′-pyrrolo[2,3-d]pyrimidin]-6′(7′H)-one]: the IC50 was less than 1 nM at DNA-PK (setting [3]), 100 to 1000 nM on ATM (class symbol), 100 to 1000 nM in assay [1] and 10 to 100 nM in assay [2].

Consider `Cc1cc2nonc2cc1Nc1ncc2c(n1)N(C13CCC(O)(CC1)C3)CC(=O)N2C` [Compound 60, 8-(4-hydroxybicyclo[2.2.1]heptan-1-yl)-5-methyl-2-((6-methylbenzo[c][1,2,5]oxadiazol-5-yl)amino)-7,8-dihydropteridin-6(5H)-one], for which the IC50 at DNA-PK (setting [3]) is less than 1 nM; against ATM (class symbol) it was 10 to 100 nM; in assay [1], 100 to 1000 nM; in assay [2], 100 to 1000 nM.

For the compound `COC12CCC(N3CC(=O)N(C)c4cnc(Nc5cc6cccnc6cc5C)nc43)(CC1)C2` [Compound 65, 8-(4-methoxybicyclo[2.2.1]heptan-1-yl)-5-methyl-2-((7-methylquinolin-6-yl)amino)-7,8-dihydropteridin-6(5H)-one], the IC50 at DNA-PK (setting [3]) is less than 1 nM; against ATM (class symbol), 1 to 10 nM; in assay [1] it was 100 to 1000 nM; in assay [2] it was 10 to 100 nM.

Turning to `Cc1cc2ncnn2cc1Nc1ncc2c(n1)N(C13CC(F)(C1)C3)C(=O)C21CC1` [Compound 70, 7′-(3-fluorobicyclo[1.1.1]pentan-1-yl)-2′-((7-methyl-[1,2,4]triazolo[1,5-a]pyridin-6-yl)amino)spiro[cyclopropane-1,5′-pyrrolo[2,3-d]pyrimidin]-6′(7′H)-one], the IC50 at DNA-PK (setting [3]) is less than 1 nM; on ATM (class symbol) it was 100 to 1000 nM; in assay [1], not below 1000 nM; in assay [2] it was not below 1000 nM.

For `COCC12CC(n3c(=O)n(C)c4cnc(Nc5cc6c(cc5C)OCO6)nc43)(C1)C2` [Compound 21, 9-(3-(methoxymethyl)bicyclo[1.1.1]pentan-1-yl)-7-methyl-2-((6-methylbenzo[d][1,3]dioxol-5-yl)amino)-7,9-dihydro-8H-purin-8-one], the IC50 against DNA-PK (class symbol) is 1 to 10 nM; against ATM (class symbol), 10 to 100 nM; in assay [1] it was not below 1000 nM; in assay [2], not below 1000 nM.

Regarding `Cc1cc2nccnc2cc1Nc1ncc2c(C)nn(C34CC(C3)C4)c2n1` [Compound 49, N-(1-(bicyclo[1.1.1]pentan-1-yl)-3-methyl-1H-pyrazolo[3,4-d]pyrimidin-6-yl)-7-methylquinoxalin-6-amine], the half-maximal inhibitory concentration (IC50) is less than 1 nM on DNA-PK (setting [3]), 10 to 100 nM at ATM (class symbol), 100 to 1000 nM in assay [1] and 100 to 1000 nM in assay [2].

Regarding `Cc1cc2nccnc2cc1Nc1ncc2c(n1)N(C13CCC(O)(CC1)C3)C(=O)C21CC1` [Compound 67, 7′-(4-hydroxybicyclo[2.2.1]heptan-1-yl)-2′-((7-methylquinoxalin-6-yl)amino)spiro[cyclopropane-1,5′-pyrrolo[2,3-d]pyrimidin]-6′(7′H)-one], the 50% inhibitory concentration (IC50) is less than 1 nM at DNA-PK (setting [3]), 100 to 1000 nM against ATM (class symbol), 100 to 1000 nM in assay [1] and 10 to 100 nM in assay [2].

On to `Cc1cc2c(cc1Nc1ncc3c(n1)n(C14CCC(O)(CC1)C4)c(=S)n3C)OCO2` [Compound 32, 9-(4-hydroxybicyclo[2.2.1]heptan-1-yl)-7-methyl-2-((6-methylbenzo[d][1,3]dioxol-5-yl)amino)-7,9-dihydro-8H-purine-8-thione], for which the concentration for half-maximal inhibition (IC50) against DNA-PK (class symbol) is 1 to 10 nM; on ATM (setting [4]), not below 1000 nM; in assay [2] it was not below 1000 nM.

Regarding `Cc1cc2ncccc2cc1Nc1ncc2c(n1)N(C13CCC(O)(CC1)C3)CC(=O)N2C` [Compound 53, 8-{4-Hydroxybicyclo[2.2.1]heptan-1-yl}-5-methyl-2-[(7-methylquinolin-6-yl)amino]-5,6,7,8-tetrahydropteridin-6-one], the values for the IC50 (at DNA-PK (setting [3]); at ATM (class symbol); in assay [1]) were less than 1 nM, 10 to 100 nM and 10 to 100 nM, respectively.

For the compound `Cc1cc(-c2cnn(C)c2)c(F)cc1Nc1ncc2c(n1)n(C13CC(F)(C1)C3)c(=O)n2C` [Compound 38, 2-((5-fluoro-2-methyl-4-(1-methyl-1H-pyrazol-4-yl)phenyl)amino)-9-(3-fluorobicyclo[1.1.1]pentan-1-yl)-7-methyl-7,9-dihydro-8H-purin-8-one], the IC50 is 10 to 100 nM against DNA-PK (class symbol), 10 to 100 nM against ATM (class symbol) and not below 1000 nM in assay [1].

Regarding `Cc1cc2nsnc2cc1Nc1ncc2c(n1)N(C13CCC(O)(CC1)C3)C(=O)C21CC1` [Compound 69, 7′-(4-hydroxybicyclo[2.2.1]heptan-1-yl)-2′-((6-methylbenzo[c][1,2,5]thiadiazol-5-yl)amino)spiro[cyclopropane-1,5′-pyrrolo[2,3-d]pyrimidin]-6′(7′H)-one], the values for the half-inhibitory concentration (IC50) (at DNA-PK (setting [3]); against ATM (class symbol); in assay [2]) were less than 1 nM, 10 to 100 nM and 10 to 100 nM, respectively.

Consider `Cc1cc2nsnc2cc1Nc1ncc2c(n1)N(C13CC(F)(C1)C3)CC(=O)N2C` [Compound 58, 8-(3-fluorobicyclo[1.1.1]pentan-1-yl)-5-methyl-2-((6-methylbenzo[c][1,2,5]thiadiazol-5-yl)amino)-7,8-dihydropteridin-6(5H)-one], for which the concentration for half-maximal inhibition (IC50) on DNA-PK (setting [3]) is less than 1 nM; on ATM (class symbol), 100 to 1000 nM; in assay [2] it was not below 1000 nM.

As for `COC12CCC(n3c(=O)n(C)c4cnc(Nc5cc6c(cc5C)OCO6)nc43)(C1)C2` [Compound 28, 9-(4-methoxybicyclo[2.1.1]hexan-1-yl)-7-methyl-2-((6-methylbenzo[d][1,3]dioxol-5-yl)amino)-7,9-dihydro-8H-purin-8-one], the IC50 is 1 to 10 nM against DNA-PK (class symbol), not below 1000 nM at ATM (setting [4]) and not below 1000 nM in assay [1].

The values above are taken from patent publication US20250263753A1, “BRIDGED CYCLE-BASED INHIBITORS OF DNA-DEPENDENT PROTEIN KINASE AND COMPOSITIONS AND APPLICATION IN GENE EDITING” (Juno Therapeutics, Inc., priority 2023, published 2025).
